Assay results reported in patent US11034669B2, “Pyrrole and pyrazole compounds and methods of use thereof” (Nuvation Bio Inc., priority 2018, dated 2021).

Experiments:
[1] = tested on: LNCaP-abl cells; assay: Cell proliferation assay, LNCaP-abl (CellTiter-Glo); assay type: cell-based; conditions: three days
Method: LNCaP-abl (3,000 cells/well, received from Dr. Myles Brown, Dana Farber Cancer Institute), 22RV 1 (1,000 cells/well), LNCaP (5,000 cells/well), or COS (3,000 cells/well) cells were plated in 96 well plates in 50 μl RPMI+10% FBS (Fisher Scientific, Waltham, Mass.). LNCaP, COS, and 22RV 1 cells were obtained from ATCC. Cells were treated in RPMI+10% FBS with test articles, ranging from 1 nM to 10 μM. Three days later, viable cells (LNCaP-abl, 22RV 1, and COS) were measured by CellTiter-Glo assay (Promega, Madison, Wis.). For LNCaP cells, medium containing test article was changed after 3 days of treatment, and after an additional 3 days of culture, viable cells were measured by CellTiter-Glo assay.

[2] = molecular target: T1, GR (Homo sapiens, UniProt P04150); assay: GR antagonist assay (GRE-LUC luciferase reporter, with 0.1 nM dexamethasone)
T1 sequence (P04150 1-777): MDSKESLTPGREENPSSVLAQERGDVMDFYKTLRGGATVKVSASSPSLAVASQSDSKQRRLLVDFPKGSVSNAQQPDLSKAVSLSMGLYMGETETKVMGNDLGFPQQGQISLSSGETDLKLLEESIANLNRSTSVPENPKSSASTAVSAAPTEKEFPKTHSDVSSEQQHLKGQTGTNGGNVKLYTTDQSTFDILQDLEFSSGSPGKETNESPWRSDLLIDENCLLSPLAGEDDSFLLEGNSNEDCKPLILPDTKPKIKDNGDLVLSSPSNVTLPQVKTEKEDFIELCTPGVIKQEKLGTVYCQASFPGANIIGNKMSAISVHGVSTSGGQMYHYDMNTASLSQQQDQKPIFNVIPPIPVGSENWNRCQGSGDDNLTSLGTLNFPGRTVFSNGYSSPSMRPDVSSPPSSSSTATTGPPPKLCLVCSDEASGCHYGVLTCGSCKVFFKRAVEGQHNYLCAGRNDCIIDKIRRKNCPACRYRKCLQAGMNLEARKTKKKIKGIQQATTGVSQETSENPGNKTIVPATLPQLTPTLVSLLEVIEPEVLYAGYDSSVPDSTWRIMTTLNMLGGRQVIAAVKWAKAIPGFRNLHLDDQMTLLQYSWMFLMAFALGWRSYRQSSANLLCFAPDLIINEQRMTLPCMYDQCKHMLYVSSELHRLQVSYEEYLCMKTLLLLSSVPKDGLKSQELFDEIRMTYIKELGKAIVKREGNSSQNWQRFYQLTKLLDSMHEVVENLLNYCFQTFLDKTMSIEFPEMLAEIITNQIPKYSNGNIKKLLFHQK
Method: COS-7 cells (ATCC, Manassas, Va.) were plated in 24 well plates in DME+5% csFBS without phenol red at 70,000 cells/well. Once the cells attached to the plates (typically after overnight incubation after plating), they were transfected in OPTIMEM medium (Life Technologies) using lipofectamine reagent (Life Technologies) with 0.25 μg GRE-LUC, 25 ng pCR3.1 GR, and 10 ng CMV-renilla LUC per well. Twenty-four hours after transfection, the cells were fed with DME+5% csFBS without phenol red (Fisher Scientific, Waltham, Mass.) and treated with the test compounds (1 μM to 10 μM dose range) in the presence of 0.1 nM dexamethasone (Sigma, St. Louis, Mo.). Sixteen to twenty-four hours after treatment, a luciferase assay was performed using the Dual Luciferase assay kit (Promega, Madison, Wis.). Firefly luciferase values were normalized to Renilla luciferase numbers.

[3] = molecular target: T2, Human AR (Homo sapiens, UniProt P10275); assay: AR antagonist assay (GRE-LUC luciferase reporter, with 0.1 nM R1881); assay type: cell-based; conditions: read-out: AR Antagonism IC50
T2 construct: expressed in transfected cells; host or cells: HEK-293 cells
T2 sequence (P10275 1-920): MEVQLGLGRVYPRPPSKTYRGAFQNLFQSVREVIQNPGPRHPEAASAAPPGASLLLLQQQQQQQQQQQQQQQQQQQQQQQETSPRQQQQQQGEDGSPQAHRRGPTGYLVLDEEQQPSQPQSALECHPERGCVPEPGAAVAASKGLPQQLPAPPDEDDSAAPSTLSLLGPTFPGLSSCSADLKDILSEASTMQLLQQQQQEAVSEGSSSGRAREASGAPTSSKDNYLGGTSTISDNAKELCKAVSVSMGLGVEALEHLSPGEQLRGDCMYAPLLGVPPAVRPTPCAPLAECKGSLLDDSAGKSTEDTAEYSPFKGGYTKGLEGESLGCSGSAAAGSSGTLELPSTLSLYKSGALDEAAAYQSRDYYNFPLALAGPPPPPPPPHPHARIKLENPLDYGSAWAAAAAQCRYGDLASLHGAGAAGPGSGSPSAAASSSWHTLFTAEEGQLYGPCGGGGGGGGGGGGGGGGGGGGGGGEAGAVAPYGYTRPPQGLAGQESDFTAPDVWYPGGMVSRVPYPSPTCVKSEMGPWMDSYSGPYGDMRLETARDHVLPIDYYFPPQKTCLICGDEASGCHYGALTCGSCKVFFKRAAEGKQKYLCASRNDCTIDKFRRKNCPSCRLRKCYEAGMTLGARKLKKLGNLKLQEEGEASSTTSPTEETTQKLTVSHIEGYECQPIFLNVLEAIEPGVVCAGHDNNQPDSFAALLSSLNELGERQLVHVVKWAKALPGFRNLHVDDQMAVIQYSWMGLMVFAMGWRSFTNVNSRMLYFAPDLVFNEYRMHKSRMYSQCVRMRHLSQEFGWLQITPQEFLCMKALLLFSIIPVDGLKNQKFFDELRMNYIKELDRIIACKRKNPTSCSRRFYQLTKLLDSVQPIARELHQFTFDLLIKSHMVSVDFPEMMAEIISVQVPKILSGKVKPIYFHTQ
Method: Human AR cDNA cloned into pCMV vector, GRE-LUC, and CMV-renilla-LUC were used to transfect cells. HEK-293 cells (ATCC) were plated at 120,000 cells per well of a 24 well plate in DME+5% csFBS (Fisher Scientific, Waltham, Mass.). The cells were transfected using Lipofectamine (Life Technologies, Carlsbad, Calif.) with 0.25 μg GRE-LUC, 0.010 μg CMV-LUC (renilla luciferase) and 25 ng of the AR. […] Luciferase assay was performed 48 hrs after transfection. Firefly luciferase assay values were normalized to renilla luciferase values and were graphed using graphpad prism software (La Jolla, Calif.).

SMILES	cell proliferation, % of vehicle at 3 μM [1] [%]	cell proliferation, % of vehicle at 10 μM [1] [%]	IC50 [2] [µM]	IC50 [3] [µM]
N#Cc1ccc(-c2ccn(-c3ccc(CNC(=O)c4ccccn4)c(F)c3)n2)cc1C(F)(F)F [Compound 16]	89	98	> 10	> 10
Cc1ncsc1C(=O)NCc1ccc(-n2ccc(-c3ccc(C#N)c(C(F)(F)F)c3)n2)cc1F [Compound 15]	66	3	> 10	0.28
